This passage reports Ambit profiling results from US12157741B2, “Macrocyclic inhibitors of DYRK1A” (DANA-FARBER CANCER INSTITUTE, INC., priority 2018, dated 2024).

The target in assay [1] is T1, various enzymes (Homo sapiens, UniProt O14757).
T1 sequence (O14757 1-476): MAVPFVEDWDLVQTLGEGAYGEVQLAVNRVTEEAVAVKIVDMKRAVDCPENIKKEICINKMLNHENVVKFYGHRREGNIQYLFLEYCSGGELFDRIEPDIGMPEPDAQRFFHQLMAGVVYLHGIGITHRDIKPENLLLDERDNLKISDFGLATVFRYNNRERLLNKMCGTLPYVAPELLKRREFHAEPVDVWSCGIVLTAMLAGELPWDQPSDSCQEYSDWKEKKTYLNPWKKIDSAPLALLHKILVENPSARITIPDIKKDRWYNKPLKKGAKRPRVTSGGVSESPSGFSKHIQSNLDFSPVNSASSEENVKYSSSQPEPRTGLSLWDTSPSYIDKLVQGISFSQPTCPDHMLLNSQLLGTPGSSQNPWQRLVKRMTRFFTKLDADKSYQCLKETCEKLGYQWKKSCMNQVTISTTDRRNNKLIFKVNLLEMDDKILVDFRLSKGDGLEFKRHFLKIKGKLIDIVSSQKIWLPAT
The settings on record: CHEK1; 1 uM.
Method: (§1) Ambit profiling from Eurofins (formerly Discoverx) was conducted in accordance with the manufacturer's instructions.

In assay [2] the target is various enzymes (Homo sapiens, UniProt P00533). To be noted: EGFR; 1 uM.
Method: as §1
Assay [3] concerns the target various enzymes (Homo sapiens, UniProt P00533, DELINS747-751S). The settings on record: EGFR(L747-T751del, Sins); 1 uM.
Method: as §1
The target in assay [4] is various enzymes (Homo sapiens, UniProt P00533, G719C).
Method: as §1
Assay [5] addresses various enzymes (Homo sapiens, UniProt P00533, L861Q).
Method: as §1
Assay [6] has as its target various enzymes (Homo sapiens, UniProt P19525). The settings on record: PRKR; 1 uM.
Method: as §1
The target of assay [7] is T2, various enzymes (Homo sapiens, UniProt P36888).
T2 sequence (P36888 1-993): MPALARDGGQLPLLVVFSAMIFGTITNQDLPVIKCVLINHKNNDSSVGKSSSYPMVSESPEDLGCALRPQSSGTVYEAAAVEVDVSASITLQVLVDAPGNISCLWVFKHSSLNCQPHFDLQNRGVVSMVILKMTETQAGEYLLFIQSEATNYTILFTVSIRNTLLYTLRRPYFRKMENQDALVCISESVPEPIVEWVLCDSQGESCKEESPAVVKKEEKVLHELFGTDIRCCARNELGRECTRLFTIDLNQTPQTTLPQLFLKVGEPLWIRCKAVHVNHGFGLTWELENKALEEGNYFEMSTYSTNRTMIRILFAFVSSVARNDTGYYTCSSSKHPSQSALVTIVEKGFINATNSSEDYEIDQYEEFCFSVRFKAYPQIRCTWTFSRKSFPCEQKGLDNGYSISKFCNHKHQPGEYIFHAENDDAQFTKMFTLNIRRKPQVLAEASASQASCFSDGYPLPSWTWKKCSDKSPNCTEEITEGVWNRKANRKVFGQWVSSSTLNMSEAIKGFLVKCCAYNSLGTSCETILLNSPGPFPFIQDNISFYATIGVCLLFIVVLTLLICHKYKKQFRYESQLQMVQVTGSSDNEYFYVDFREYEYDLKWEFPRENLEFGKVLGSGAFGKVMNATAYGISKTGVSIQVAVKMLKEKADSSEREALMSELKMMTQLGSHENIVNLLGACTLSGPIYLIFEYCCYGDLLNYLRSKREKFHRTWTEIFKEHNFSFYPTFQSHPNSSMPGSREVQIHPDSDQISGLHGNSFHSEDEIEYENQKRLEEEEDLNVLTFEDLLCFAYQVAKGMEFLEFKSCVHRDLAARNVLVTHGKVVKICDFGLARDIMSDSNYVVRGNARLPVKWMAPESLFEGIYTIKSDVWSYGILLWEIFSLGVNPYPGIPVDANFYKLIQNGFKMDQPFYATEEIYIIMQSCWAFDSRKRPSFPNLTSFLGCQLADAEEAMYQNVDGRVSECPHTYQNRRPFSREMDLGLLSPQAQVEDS
The settings on record: FLT3(ITD); 1 uM.
Method: as §1

The target of assay [8] is various enzymes (Homo sapiens, UniProt Q13705). To be noted: ACVR2B; 1 uM.
Method: as §1
The target in assay [9] is T3, various enzymes (Homo sapiens, UniProt Q6PHR2).
T3 sequence (Q6PHR2 1-472): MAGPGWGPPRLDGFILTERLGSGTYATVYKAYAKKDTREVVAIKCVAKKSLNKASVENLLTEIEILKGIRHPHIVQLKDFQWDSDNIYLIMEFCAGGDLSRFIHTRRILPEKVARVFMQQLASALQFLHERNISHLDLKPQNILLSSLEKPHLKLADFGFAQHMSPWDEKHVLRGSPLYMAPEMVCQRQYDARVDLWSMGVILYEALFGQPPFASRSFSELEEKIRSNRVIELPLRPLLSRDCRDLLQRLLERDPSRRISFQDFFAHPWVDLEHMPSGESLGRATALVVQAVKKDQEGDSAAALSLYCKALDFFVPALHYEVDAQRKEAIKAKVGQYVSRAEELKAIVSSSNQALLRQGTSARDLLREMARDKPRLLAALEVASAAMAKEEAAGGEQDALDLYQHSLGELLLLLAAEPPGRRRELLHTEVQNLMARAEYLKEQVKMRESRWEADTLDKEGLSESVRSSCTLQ
To be noted: ULK3; 1 uM.
Method: as §1

Assay [10] addresses various enzymes (Homo sapiens, UniProt Q9H4A3). The settings on record: WNK1; 1 uM.
Method: as §1
Assay [11] concerns the target various enzymes (Homo sapiens, UniProt Q9HCP0). To be noted: CSNK1G1; 1 uM.
Method: as §1
In assay [12] the target is various enzymes (Homo sapiens, UniProt Q9Y2K2). To be noted: QSK; 1 uM.
Method: as §1
Assay [13] deals with various enzymes (Homo sapiens, UniProt Q9Y6M4). To be noted: CSNK1G3; 1 uM.
Method: as §1

Read-outs that look alike come from different tables or passages of the source.

Chain of various enzymes (Homo sapiens, UniProt Q9Y2K2) (Q9Y2K2 whole entry): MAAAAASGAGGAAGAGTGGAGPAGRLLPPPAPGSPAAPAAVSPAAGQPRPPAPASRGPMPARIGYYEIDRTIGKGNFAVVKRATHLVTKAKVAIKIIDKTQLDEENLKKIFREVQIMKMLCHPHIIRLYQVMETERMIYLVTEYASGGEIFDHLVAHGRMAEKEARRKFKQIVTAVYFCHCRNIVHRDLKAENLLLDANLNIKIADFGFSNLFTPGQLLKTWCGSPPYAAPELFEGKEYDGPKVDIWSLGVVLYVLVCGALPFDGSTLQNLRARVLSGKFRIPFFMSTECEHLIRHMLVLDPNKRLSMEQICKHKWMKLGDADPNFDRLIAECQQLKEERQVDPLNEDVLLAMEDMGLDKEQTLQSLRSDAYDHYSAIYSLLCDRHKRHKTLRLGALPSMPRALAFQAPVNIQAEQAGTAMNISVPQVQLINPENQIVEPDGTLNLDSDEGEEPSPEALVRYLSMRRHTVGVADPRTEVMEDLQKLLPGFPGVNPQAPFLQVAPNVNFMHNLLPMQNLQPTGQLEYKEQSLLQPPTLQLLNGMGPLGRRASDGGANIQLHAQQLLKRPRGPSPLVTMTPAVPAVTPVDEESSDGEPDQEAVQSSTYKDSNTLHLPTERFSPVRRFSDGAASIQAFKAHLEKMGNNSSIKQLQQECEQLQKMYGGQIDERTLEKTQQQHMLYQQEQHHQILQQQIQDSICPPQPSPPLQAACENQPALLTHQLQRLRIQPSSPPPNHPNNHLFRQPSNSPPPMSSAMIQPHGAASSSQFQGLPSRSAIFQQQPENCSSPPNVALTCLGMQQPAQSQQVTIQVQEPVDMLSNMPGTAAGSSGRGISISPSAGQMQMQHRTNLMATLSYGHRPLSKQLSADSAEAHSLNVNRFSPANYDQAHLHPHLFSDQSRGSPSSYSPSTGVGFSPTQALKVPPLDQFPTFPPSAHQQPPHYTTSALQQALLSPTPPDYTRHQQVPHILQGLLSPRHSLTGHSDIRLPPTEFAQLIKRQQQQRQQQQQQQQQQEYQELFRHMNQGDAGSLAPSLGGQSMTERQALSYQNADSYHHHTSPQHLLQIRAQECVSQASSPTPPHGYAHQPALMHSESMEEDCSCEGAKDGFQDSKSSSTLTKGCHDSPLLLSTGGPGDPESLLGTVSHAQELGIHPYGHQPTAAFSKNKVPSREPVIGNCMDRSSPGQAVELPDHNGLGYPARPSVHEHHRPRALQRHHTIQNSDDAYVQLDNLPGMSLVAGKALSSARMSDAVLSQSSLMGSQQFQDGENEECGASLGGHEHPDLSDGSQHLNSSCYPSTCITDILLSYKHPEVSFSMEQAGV
Chain of various enzymes (Homo sapiens, UniProt P19525) (P19525 whole entry): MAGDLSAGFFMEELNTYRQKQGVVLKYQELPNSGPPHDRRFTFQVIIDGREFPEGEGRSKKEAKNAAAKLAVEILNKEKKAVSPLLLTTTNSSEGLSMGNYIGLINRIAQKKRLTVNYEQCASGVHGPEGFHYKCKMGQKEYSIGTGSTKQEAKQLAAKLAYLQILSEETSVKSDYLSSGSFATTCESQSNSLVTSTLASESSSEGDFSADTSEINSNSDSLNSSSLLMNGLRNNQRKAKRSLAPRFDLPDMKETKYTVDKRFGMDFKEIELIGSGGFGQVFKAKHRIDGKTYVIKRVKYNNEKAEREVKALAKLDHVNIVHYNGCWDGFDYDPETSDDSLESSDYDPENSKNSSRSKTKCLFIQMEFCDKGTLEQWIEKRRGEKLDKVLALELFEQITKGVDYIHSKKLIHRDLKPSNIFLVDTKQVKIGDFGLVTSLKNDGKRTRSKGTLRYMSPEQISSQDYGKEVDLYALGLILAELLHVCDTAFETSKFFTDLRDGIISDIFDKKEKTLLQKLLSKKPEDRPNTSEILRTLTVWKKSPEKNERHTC
Chain of various enzymes (Homo sapiens, UniProt Q13705) (Q13705 19-512): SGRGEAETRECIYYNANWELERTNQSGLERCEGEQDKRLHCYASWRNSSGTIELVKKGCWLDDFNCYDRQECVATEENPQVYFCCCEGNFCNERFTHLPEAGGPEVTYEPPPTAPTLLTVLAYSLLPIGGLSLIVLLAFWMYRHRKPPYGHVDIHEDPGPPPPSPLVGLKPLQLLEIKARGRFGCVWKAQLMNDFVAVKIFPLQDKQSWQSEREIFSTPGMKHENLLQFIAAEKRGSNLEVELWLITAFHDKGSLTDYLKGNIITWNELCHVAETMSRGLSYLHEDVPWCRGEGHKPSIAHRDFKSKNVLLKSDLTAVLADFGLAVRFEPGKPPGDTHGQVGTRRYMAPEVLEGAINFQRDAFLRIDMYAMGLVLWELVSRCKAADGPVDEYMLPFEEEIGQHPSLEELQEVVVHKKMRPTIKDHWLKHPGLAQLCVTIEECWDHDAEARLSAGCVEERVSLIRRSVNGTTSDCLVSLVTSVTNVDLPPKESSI
Chain of various enzymes (Homo sapiens, UniProt Q9H4A3) (Q9H4A3 whole entry): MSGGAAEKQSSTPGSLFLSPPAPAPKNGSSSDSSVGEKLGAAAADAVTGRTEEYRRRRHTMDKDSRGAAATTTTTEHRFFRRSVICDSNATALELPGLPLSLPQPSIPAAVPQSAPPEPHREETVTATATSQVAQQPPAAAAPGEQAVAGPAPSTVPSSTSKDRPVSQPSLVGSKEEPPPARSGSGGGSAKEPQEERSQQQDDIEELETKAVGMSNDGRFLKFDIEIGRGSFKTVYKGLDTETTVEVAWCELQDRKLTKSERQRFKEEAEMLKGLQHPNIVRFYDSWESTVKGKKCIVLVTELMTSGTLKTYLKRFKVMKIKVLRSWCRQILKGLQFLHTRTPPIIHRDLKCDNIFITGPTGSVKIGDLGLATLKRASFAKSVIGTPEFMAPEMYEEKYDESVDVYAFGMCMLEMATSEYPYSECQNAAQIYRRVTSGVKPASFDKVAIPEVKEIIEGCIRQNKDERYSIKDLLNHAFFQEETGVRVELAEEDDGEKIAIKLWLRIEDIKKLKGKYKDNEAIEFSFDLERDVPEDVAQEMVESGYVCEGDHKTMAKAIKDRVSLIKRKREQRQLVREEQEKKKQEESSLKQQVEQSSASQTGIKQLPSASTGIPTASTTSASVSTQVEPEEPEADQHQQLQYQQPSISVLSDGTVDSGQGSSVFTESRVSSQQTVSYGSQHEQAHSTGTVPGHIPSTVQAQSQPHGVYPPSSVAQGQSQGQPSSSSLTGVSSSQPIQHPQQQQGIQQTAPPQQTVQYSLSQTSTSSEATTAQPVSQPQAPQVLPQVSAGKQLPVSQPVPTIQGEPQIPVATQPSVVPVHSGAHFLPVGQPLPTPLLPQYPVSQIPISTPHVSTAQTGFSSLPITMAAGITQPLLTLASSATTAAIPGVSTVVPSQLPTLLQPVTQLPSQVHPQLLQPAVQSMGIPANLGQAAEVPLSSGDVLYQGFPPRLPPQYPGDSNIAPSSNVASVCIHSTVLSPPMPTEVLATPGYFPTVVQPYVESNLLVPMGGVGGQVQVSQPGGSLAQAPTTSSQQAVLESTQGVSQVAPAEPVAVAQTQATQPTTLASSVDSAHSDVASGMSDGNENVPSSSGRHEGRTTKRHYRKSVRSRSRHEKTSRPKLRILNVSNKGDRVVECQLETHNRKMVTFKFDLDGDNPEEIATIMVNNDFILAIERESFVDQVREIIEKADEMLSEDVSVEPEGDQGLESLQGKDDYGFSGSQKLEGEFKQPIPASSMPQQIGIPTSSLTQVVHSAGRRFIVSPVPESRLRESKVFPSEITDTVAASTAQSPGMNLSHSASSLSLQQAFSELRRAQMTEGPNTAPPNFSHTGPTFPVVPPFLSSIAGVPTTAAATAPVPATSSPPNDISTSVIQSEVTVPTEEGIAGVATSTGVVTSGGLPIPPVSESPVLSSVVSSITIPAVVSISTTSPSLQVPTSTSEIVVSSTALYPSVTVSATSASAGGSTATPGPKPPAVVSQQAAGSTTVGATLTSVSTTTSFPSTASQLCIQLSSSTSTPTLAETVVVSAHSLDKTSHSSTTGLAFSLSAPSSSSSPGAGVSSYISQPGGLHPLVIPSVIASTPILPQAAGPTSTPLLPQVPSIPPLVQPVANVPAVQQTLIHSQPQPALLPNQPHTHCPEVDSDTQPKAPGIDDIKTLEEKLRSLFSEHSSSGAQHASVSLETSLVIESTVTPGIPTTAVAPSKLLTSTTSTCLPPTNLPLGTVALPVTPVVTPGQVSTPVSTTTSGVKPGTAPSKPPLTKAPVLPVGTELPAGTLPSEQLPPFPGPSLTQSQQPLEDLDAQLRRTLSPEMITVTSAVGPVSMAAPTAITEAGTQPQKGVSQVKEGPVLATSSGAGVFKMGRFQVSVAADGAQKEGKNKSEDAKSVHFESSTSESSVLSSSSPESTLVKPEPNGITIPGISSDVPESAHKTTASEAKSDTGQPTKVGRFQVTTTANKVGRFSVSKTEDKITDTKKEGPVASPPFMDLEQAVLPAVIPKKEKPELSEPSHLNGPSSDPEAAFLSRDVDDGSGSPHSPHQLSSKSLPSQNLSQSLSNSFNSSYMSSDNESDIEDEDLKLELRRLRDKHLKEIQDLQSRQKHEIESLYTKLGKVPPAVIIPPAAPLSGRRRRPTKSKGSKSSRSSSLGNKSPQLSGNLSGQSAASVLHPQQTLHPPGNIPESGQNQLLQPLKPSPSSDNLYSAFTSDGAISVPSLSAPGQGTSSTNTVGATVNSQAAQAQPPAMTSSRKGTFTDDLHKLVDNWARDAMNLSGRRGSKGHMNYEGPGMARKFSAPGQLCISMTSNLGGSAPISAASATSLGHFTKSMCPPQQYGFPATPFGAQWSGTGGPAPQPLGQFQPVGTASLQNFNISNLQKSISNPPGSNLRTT

As to `CN1Cc2nn(C)cc2-c2cnc3[nH]cc(c3c2)-c2cnn(c2)CCCC1=O` [Compound 41, (Z)-31,5-dimethyl-11H,21H,31H-5-aza-2(3,5)-pyrrolo[2,3-b]pyridina-1(4,1),3(4,3)-dipyrazolacyclononaphan-6-one], the Ambit profiling was determined as 100 at various enzymes [1]; 86 at various enzymes [2]; 100 on various enzymes [3]; 100 on various enzymes [4] (EGFR(G719C), 1 uM); 100 on various enzymes [5] (EGFR(L861Q), 1 uM); 9.2 at various enzymes [6]. Moreover, the Ambit profiling worked out at 0.15 on various enzymes [7]; 65 at various enzymes [8]; 5.6 at various enzymes [9]; 95 on various enzymes [10]; 84 at various enzymes [11]; 89 at various enzymes [12]. This compound displayed an Ambit profiling on various enzymes [13] of 100.
With `CN1Cc2nn(C)c(C#N)c2-c2cnc3[nH]cc(c3c2)-c2cn(nc2C(F)(F)F)CCCC1=O` [Compound 48, (Z)-31,5-dimethyl-6-oxo-13-(trifluoromethyl)-11H,21H,31H-5-aza-2(3,5)-pyrrolo[2,3-b]pyridina-1(4,1),3(4,3)-dipyrazolacyclononaphane-35-carbonitrile], the Ambit profiling at various enzymes [1] was found to be 93; at various enzymes [2], 76; on various enzymes [3], 50; on various enzymes [4], 86; at various enzymes [5], 59; at various enzymes [6], 100. Moreover, the Ambit profiling on various enzymes [7] is listed as 21; on various enzymes [8] it was 98; on various enzymes [9] it was 97; at various enzymes [10], 100; at various enzymes [11] it was 100; at various enzymes [12] it was 100. This compound had an Ambit profiling at various enzymes [13] of 98.
